# From patent US20170348258A1, “3-Amino Benzamide Derivative Serving As B-Lactam Auxiliary Antibiotic, Preparation Method and Use Thereof” (THE HONG KONG POLYTECHNIC UNIVERSITY, priority 2014, published 2017)
# Assays:
# [1] = tested on: MRSA strain 231; experiment: FICI of F332 with antibiotics; type: cell-based, S. aureus
# [2] = tested on: MRSA strain 774; experiment: FICI of F332 with antibiotics; type: cell-based, S. aureus
# [3] = tested on: MRSA strain 3267; experiment: FICI of F332 with antibiotics; type: cell-based, S. aureus
# [4] = tested on: MRSA strain #1717 (ATCC strain); experiment: FICI of F332 with antibiotics; type: cell-based, S. aureus
# [5] = in vivo; conditions: male, Sprague-Dawley, rat
# Procedure: Compound F332 was further subjected to in vivo pharmacokinetic study. The UPLC-MS/MS system consists of an Acquity Waters UPLC interfaced with triple quadrupole mass spectrometer (Micromass model Quattro Ultima) equipped with an electrospray ionization source in positive mode. Chromatographic separation was done on ACQUITY UPLC BEH C18 […] (2.1×50 mm) column. The mobile phase consists of methanol+0.1% formic acid (solvent B) and Milli-Q water+0.1% formic acid (solvent A). Multiple reaction monitoring (MRM) was set monitoring the transitions for F332 [M+H]^+ at 299>142 m/z. The collision energy, cone voltage, source temperature, desolvation temperature and capillary voltage are 25, 30, 150° C., 350° C. and 3 Kv, respectively. The cone gas and desolvation gas was 150 L/Hr and 600 L/Hr, respectively.
# Male Sprague-Dawley (SD) rats (body weight 250-280 g) were obtained from Centralised Animal Facilities, The Hong Kong Polytechnic University. Animals were kept in a temperature and humidity controlled environment with 12 hour light-dark cycle with standard diet and water. Animal experiment protocol was approved by the Animal Subjects Ethics Sub-Committee of The Hong Kong Polytechnic University. Right jugular vein cannulation was done one day in advance of the experiment. Animal were fasted overnight and had free access to water throughout the experiment. F332 was freshly prepared in 5% CremophorEL, 5% ethanol, 90% saline at a concentration of 2 mg/ml. F332 was prepared on the day of use and used for animal study within half an hour. In the current study, F332 was administered through passive oral feeding (oral) and intravenous (IV) injection. Blood samples (approx. 500 μL) were collected in heparinzied tubes (20 units of heparin salt/tube) via jugular vein at 5, 10, 30, 45, 60, 120, 240 and 420 minutes post administration for IV study. As for oral study, plasma samples were collected at 2, 10, 30, 45, 60, 120, 240, 480 and 600 minutes. Blood plasma samples were collected by centrifuged at 16,100 G for 10 minutes. For all blood plasma samples, 3 fold volume of methanol was added for protein precipitation. Supernatant was filtered by a syringe filter before UPLC-MS/MS analysis. Pharmacokinetic parameters in plasma were determined by non-compartmental pharmacokinetics data analysis using Pharmacokinetics Solutions 2.0 software (Summit Research Services, Montrose, Colo., USA). The pharmacokinetic parameters determined include maximal plasma concentration (Cmax), time to reach maximal plasma concentration (Tmax), mean residence time (MRT), absorption/distribution half life (t1/2α), elimination half life (t1/2β), volume of distribution (Vd), systemic clearance (CL) and the area under the concentration-time curve (AUC).
# [6] = tested on: MRSA strain 1449; experiment: FICI of F332 with antibiotics; type: cell-based, S. aureus
# [7] = tested on: MRSA strain 3411; experiment: FICI of F332 with antibiotics; type: cell-based, S. aureus
# [8] = tested on: MRSA strain 2973; experiment: FICI of F332 with antibiotics; type: cell-based, S. aureus
# [9] = tested on: MRSA strain 85; experiment: FICI of F332 with antibiotics; type: cell-based, S. aureus
# [10] = tested on: MRSA strain 358; experiment: FICI of F332 with antibiotics; type: cell-based, S. aureus
# [11] = tested on: MRSA strain 1136; experiment: FICI of F332 with antibiotics; type: cell-based, S. aureus
# [12] = tested on: MRSA strain 2490; experiment: FICI of F332 with antibiotics; type: cell-based, S. aureus
smiles,measurement,setting,value
"CCCCCCCCCNc1ccc(F)c(C(N)=O)c1F [Compound F332, 2,6-difluoro-3-(nonylamino)benzamide]",FICI of F332 combined with Amoxicillin,[1],0.52
same,FICI of F332 combined with Cefuroxime,[1],0.50
same,FICI of F332 combined with Cloxacillin,[1],0.28
same,FICI of F332 combined with Meropenem,[1],0.63
same,FICI of F332 combined with Meticillin,[1],0.50
same,FICI of F332 combined with Amoxicillin,[2],0.03
same,FICI of F332 combined with Cefuroxime,[2],0.01
same,FICI of F332 combined with Cloxacillin,[2],0.50
same,FICI of F332 combined with Meropenem,[2],0.13
same,FICI of F332 combined with Meticillin,[2],0.26
same,FICI of F332 combined with Amoxicillin,[3],0.25
same,FICI of F332 combined with Cefuroxime,[3],0.01
same,FICI of F332 combined with Cloxacillin,[3],0.25
same,FICI of F332 combined with Meropenem,[3],4.01
same,FICI of F332 combined with Meticillin,[3],0.07
same,FICI of F332 combined with Amoxicillin,[4],1.06
same,FICI of F332 combined with Cefuroxime,[4],1.13
same,FICI of F332 combined with Cloxacillin,[4],2.50
same,FICI of F332 combined with Meropenem,[4],3.00
same,FICI of F332 combined with Meticillin,[4],1.13
same,AUC,"[5]; iv, 1 mg/kg",1.74 µg·h/mL
same,AUC(0-t),"[5]; iv, 1 mg/kg",0.699 µg·h/mL
same,MRT,"[5]; iv, 1 mg/kg",8.08 h
same,Vd,"[5]; iv, 1 mg/kg",4.81 L/kg
same,clearance,"[5]; iv, 1 mg/kg",0.6 L/h/kg
same,half-life,"[5]; iv, 1 mg/kg, Absorption/distribution half life",0.25 h
same,half-life,"[5]; iv, 1 mg/kg, Elimination half life",5.82 h
same,AUC,"[5]; po, 50 mg/kg",10.4 µg·h/mL
same,AUC(0-t),"[5]; po, 50 mg/kg",8.98 µg·h/mL
same,CL (area)/kg,"[5]; po, 50 mg/kg",4.8 L/h/kg
same,Cmax,"[5]; po, 50 mg/kg",1.92 µg/mL
same,MRT,"[5]; po, 50 mg/kg",4.82 h
same,Tmax,"[5]; po, 50 mg/kg",2 h
same,Vd (area)/kg,"[5]; po, 50 mg/kg",20.916 L/kg
same,half-life,"[5]; po, 50 mg/kg",3 h
same,half-life,"[5]; po, 50 mg/kg, Absorption/distribution half life",0.35 h
same,bioavailability,"[5]; po, 50 mg/kg, Bioavailability",~12%
same,FICI of F332 combined with Amoxicillin,[6],0.38
same,FICI of F332 combined with Cefuroxime,[6],1.50
same,FICI of F332 combined with Cloxacillin,[6],0.63
same,FICI of F332 combined with Meropenem,[6],33.0
same,FICI of F332 combined with Meticillin,[6],0.75
same,FICI of F332 combined with Amoxicillin,[7],2.02
same,FICI of F332 combined with Cefuroxime,[7],1.00
same,FICI of F332 combined with Cloxacillin,[7],0.53
same,FICI of F332 combined with Meropenem,[7],3.00
same,FICI of F332 combined with Meticillin,[7],1.02
same,FICI of F332 combined with Amoxicillin,[8],0.08
same,FICI of F332 combined with Cefuroxime,[8],0.53
same,FICI of F332 combined with Cloxacillin,[8],0.07
same,FICI of F332 combined with Meropenem,[8],4.03
same,FICI of F332 combined with Meticillin,[8],0.28
same,FICI of F332 combined with Amoxicillin,[9],0.04
same,FICI of F332 combined with Cefuroxime,[9],0.25
same,FICI of F332 combined with Cloxacillin,[9],1.00
same,FICI of F332 combined with Meropenem,[9],4.01
same,FICI of F332 combined with Meticillin,[9],0.50
same,FICI of F332 combined with Amoxicillin,[10],0.27
same,FICI of F332 combined with Cefuroxime,[10],1.13
same,FICI of F332 combined with Cloxacillin,[10],1.06
same,FICI of F332 combined with Meropenem,[10],129.0
same,FICI of F332 combined with Meticillin,[10],0.25
same,FICI of F332 combined with Amoxicillin,[11],1.03
same,FICI of F332 combined with Cefuroxime,[11],0.13
same,FICI of F332 combined with Cloxacillin,[11],0.38
same,FICI of F332 combined with Meropenem,[11],4.50
same,FICI of F332 combined with Meticillin,[11],0.31
same,FICI of F332 combined with Amoxicillin,[12],0.56
same,FICI of F332 combined with Cefuroxime,[12],0.19
same,FICI of F332 combined with Cloxacillin,[12],0.56
same,FICI of F332 combined with Meropenem,[12],2.25
same,FICI of F332 combined with Meticillin,[12],0.25
